Measured values reported in ChEMBL document CHEMBL1133597, “Fluorosulfonyl-substituted xanthines as selective irreversible antagonists for the A(1)-adenosine receptor” (J Med Chem, 2000).

What was measured:
Adenosine receptor A2a [1] = biological target: T1, Adenosine receptor A2a (Rattus norvegicus, UniProt P30543)
Description: Inhibition of [3H]ZM-241385 binding to adenosine A2A receptor(AR).

Adenosine receptor A1 = biological target: T2, Adenosine receptor A1 (Homo sapiens, UniProt P30542); experiment: Inhibition of [3H]-DPCPX binding to adenosine A1 receptor (AR).; set-up: species or system Cricetulus griseus
T2 sequence (P30542 whole entry): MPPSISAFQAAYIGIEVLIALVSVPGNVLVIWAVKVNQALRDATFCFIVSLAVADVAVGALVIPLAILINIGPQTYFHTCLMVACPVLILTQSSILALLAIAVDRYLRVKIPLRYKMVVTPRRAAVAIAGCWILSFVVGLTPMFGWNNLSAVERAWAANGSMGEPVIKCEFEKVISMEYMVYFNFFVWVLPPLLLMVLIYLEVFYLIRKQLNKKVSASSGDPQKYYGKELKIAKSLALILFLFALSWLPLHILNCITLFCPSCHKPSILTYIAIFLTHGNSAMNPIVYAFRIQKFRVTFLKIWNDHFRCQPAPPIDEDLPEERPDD

[2] = biological target: T3, Adenosine receptor A1 (Homo sapiens) (UniProt P30542); experiment: Percent loss of [3H]-DPCPX binding to adenosine A1 receptor at 200 nM; conditions: Cricetulus griseus
T3 sequence (whole entry): T2 sequence (P30542 whole entry)

Adenosine receptor A2a [3] = biological target: T1, Adenosine receptor A2a; remark: listed apart in the source
Description: Dissociation constant of [3H]ZM-241385 binding to adenosine A2A receptor(AR)

[4] = biological target: T3, Adenosine receptor A1 (Homo sapiens); experiment: Percent loss of [3H]DPCPX binding to adenosine A1 receptor at 0.1 nM; conditions: Cricetulus griseus
[5] = biological target: T3, Adenosine receptor A1 (Homo sapiens); experiment: Percent loss of [3H]DPCPX binding to adenosine A1 receptor at 0.05 nM; conditions: Cricetulus griseus
[6] = biological target: T3, Adenosine receptor A1 (Homo sapiens); experiment: Percent loss of [3H]DPCPX binding to adenosine A1 receptor at 5 nM; conditions: Cricetulus griseus
[7] = biological target: T3, Adenosine receptor A1 (Homo sapiens); experiment: Percent loss of [3H]-DPCPX binding to adenosine A1 receptor at 100 nM; conditions: Cricetulus griseus

T1 sequence (P30543 whole entry): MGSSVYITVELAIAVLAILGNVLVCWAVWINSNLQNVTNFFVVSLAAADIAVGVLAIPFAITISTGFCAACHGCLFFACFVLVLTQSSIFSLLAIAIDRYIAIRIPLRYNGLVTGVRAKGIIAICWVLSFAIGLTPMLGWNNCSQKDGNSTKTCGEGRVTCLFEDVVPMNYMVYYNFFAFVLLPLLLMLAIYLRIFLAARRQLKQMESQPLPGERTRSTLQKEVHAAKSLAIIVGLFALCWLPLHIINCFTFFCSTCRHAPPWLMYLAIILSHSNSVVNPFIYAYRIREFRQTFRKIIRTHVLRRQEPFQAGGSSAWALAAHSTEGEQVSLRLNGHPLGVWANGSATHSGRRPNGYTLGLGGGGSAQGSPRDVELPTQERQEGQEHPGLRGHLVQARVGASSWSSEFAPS

Row | SMILES | IC50 (Adenosine receptor A2a [1]) [nM] | IC50 (Adenosine receptor A1) [nM] | Loss [2] [%] | Loss [6] [%] | other results
1 | CCCn1c(=O)c2[nH]c(C3CCCCC3)nc2n(CCCc2ccc(S(=O)(=O)F)cc2)c1=O | > 10 | 112 | – | – | –
2 | CCCn1c(=O)c2[nH]c(C3CCCCC3)nc2n(Cc2ccc(S(=O)(=O)F)cc2)c1=O | > 10 | 165 | – | – | –
3 | CCCn1c(=O)c2nc(C3CCCCC3)[nH]c2n(Cc2ccc(S(=O)(=O)F)cc2)c1=O | – | – | 0 | – | –
4 | CCCn1c(=O)c2nc(C3CCCCC3)[nH]c2n(CCCCCc2ccc(S(=O)(=O)F)cc2)c1=O | > 10 | 101 | 43 | – | –
5 | CCCn1c(=O)c2nc(C3CCCC3)[nH]c2n(CCCNC(=O)c2ccc(S(=O)(=O)F)cc2)c1=O | 2.8 | – | – | 74 | Kd (Adenosine receptor A2a [3]): 0.34 nM; Loss [4]: 64%; Loss [5]: 33%; Loss [7]: 83%
6 | CCCn1c(=O)c2[nH]c(C3CCCC3)nc2n(CCCOC(=O)c2ccc(S(=O)(=O)F)cc2)c1=O | 1.2 | – | – | – | Kd (Adenosine receptor A2a [3]): 0.23 nM
7 | CCCn1c(=O)c2nc(C3CCCCC3)[nH]c2n(CCCc2ccc(S(=O)(=O)F)cc2)c1=O | – | – | 11 | – | –
8 | CCCn1c(=O)c2nc(C3CCCC3)[nH]c2n(CCCOC(=O)c2ccc(S(=O)(=O)F)cc2)c1=O | – | – | – | 67 | –
9 | CCCn1c(=O)c2nc(C3CCCCC3)[nH]c2n(CCCNC(=O)c2ccc(S(=O)(=O)F)cc2)c1=O | – | 24.9 | – | 64 | Loss [4]: 43%; Loss [5]: 16%; Loss [7]: 82%
